Results as given in PMC11571207, “Stereorandomized Oncocins with Preserved Ribosome Binding and Antibacterial Activity” (Journal of Medicinal Chemistry, 2024).
Like-named read-outs stand apart in the source and are kept apart here. No end group written: not given here.

Tests used:
human red blood cells = assay: Hemolysis assay, minimum hemolytic concentration; conditions: for Haemolysis on hRBC, MHC: 2.5% human red blood cells (final) in 10 mM phosphate, 150 mM NaCl, pH 7.4, 25 °C, 4 h, visual inspection; for MHC human red blood cells: supplement CSV
S. aureus COL (MRSA) = assay: microbe, parasite or virus in culture; conditions: for MIC S. aureus, 12.5% MHB / MIC S. aureus, Full MHB: S. aureus COL (MRSA), 16–20 h at 37 °C; for MIC S. aureus, 12.5% MHB: 12.5% Müller–Hinton medium; for MIC S. aureus, Full MHB: full Müller–Hinton medium; for MIC S. aureus COL (MRSA): supplement CSV
Method in brief: (§1)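 Read-out was visible growth after MTT addition, the MIC being the lowest inhibitory peptide concentration. Bacteria grown to log phase in LB were exposed in MH medium to peptide from 64 μg/mL in twofold dilutions for 15-18h at 37°C.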

P. aeruginosa PAO1 = assay: microbe, parasite or virus in culture; conditions: for MIC P. aeruginosa, 12.5% MHB / MIC P. aeruginosa, Full MHB: P. aeruginosa PAO1, 16–20 h at 37 °C; for MIC P. aeruginosa, 12.5% MHB: 12.5% Müller–Hinton medium; for MIC P. aeruginosa, Full MHB: full Müller–Hinton medium; for MIC P. aeruginosa PAO1: supplement CSV
Method in brief: as §1

K. pneumoniae NCTC 418 = assay: microbe, parasite or virus in culture; conditions: for MIC K. pneumoniae, 12.5% MHB / MIC K. pneumoniae, Full MHB: K. pneumoniae NCTC 418, 16–20 h at 37 °C; for MIC K. pneumoniae, 12.5% MHB: 12.5% Müller–Hinton medium; for MIC K. pneumoniae, Full MHB: full Müller–Hinton medium; for MIC K. pneumoniae NCTC418: supplement CSV
Method in brief: as §1

A. baumannii ATCC19606 = assay: microbe, parasite or virus in culture; conditions: for MIC A. baumannii, 12.5% MHB / MIC A. baumannii, Full MHB: A. baumannii ATCC19606, 16–20 h at 37 °C; for MIC A. baumannii, 12.5% MHB: 12.5% Müller–Hinton medium; for MIC A. baumannii, Full MHB: full Müller–Hinton medium; for MIC A. baumannii ATCC19606: supplement CSV
Method in brief: as §1

E. coli W3110 = assay: microbe, parasite or virus in culture; conditions: for MIC E. coli, 12.5% MHB / MIC E. coli, Full MHB: E. coli W3110, 16–20 h at 37 °C, broth microdilution; for MIC E. coli, 12.5% MHB: 12.5% Müller–Hinton medium; for MIC E. coli, Full MHB: full Müller–Hinton medium; for MIC E. coli W3110: supplement CSV
Method in brief: as §1

[1] = test system: E. coli ribosome, U2506 of the 23S rRNA; assay: Ribosome footprinting (CMCT modification of U2506); format: binding; conditions: 1 μM peptide, 10.5 μM CMCT, purified E. coli ribosomes (5 pmol), 25 °C; primer extension, sequencing gel
Procedure: A 5 mL culture of E. coli MG1655 (WT-cells) was grown in LB overnight (220 rpm, 37 °C). One liter LB medium was inoculated, and bacteria were grown to OD = 0.6 (220 rpm. 37 °C); cells were centrifuged in centrifuge bottles, and the pellet was resuspended in ice-cold water and transferred in 50 mL falcon tubes. Falcon tubes were centrifuged, the supernatant was removed, the pellet was resuspended in 15 mL polysome buffer (TRIS/HCl pH 7.5 20 mM, NH4Cl 100 mM, MgCl2 10 mM, EDTA 0.5 mM, β-mercaptoethanol 60 mM), frozen dropwise in N2 (l), and stored at −80 °C. The cells were ground in CryoMil with the standard program (1 min precooling, 2 min grinding 5/s, 2 min cooling, 2 min grinding 5/s). The powder was transferred in 50 mL falcon tubes containing N2 (l) and stored at −80 °C. The lysates were thawed with a water bath (30 °C), put on ice, transferred to precooled Eppendorf tubes, and centrifuged (5000 g, 2 min, 4 °C). The clear lysate was transferred to new precooled tubes, centrifuged (14 000 g, 10 min, 4 °C), and the supernatant was transferred to new precooled tubes. 300 mL of clear lysate was loaded on a 10–50% sucrose gradient in CMCT buffer (K-borate buffer pH 8 80 mM, MgCl2 25 mM, NH4Cl 100 mM) and ultracentrifuged (3 h, 234 050 g, 4 °C). The fractions containing monosomes and polysomes were collected and ultracentrifuged overnight (16 h, 260 800 g, 4 °C). The supernatant was discarded, and the pellet was washed with ice-cold CMCT buffer. The ribosomes were resuspended in 100 μL CMCT buffer with a mini magnetic stirring bar and stored on ice. The concentration of ribosomes was measured in 1/200 dilution in water.
Ribosomes (5 pmol) were mixed with 8 μL of CMCT buffer, the compound of interest 1 μM, and water to a final volume of 20 μL in a precooled tube and incubated at 25 °C for 10 min. 20 μL of CMCT (10.5 μM) in water was added and incubated at 25 °C for 30 min. The reaction was stopped with 160 μL of EDTA (30 μM), and the samples were stored on ice.
160 μL portion of RNA resuspension buffer and 40 μL of 10% SDS were added, and the samples were vigorously resuspended. 400 μL of prewarmed acid phenol was added, and the samples were incubated on a thermomixer (5 min, 1200 rpm, 65 °C). The samples were put on ice for 5 min and centrifuged (5 min, 14 000 g, RT). The watery phase was transferred to a new precooled tube, 400 μL of phenol–chloroform–isoamyl alcohol (4 °C) was added, and the samples were mixed (5 min, 1200 rpm, RT). The samples were centrifuged again (5 min, 14 000g, RT), and the watery phase was transferred to another precooled tube. 34 μL of 3 M NaOAc pH 5.5, 0.8 μL of Glycoblue and 400 μL of isopropanol were added, and the samples were incubated for 3 h at −80 °C. The samples were then centrifuged (40 min, 21 000g, 4 °C), and the pellet was washed with ice-cold 70% EtOH. The residual liquid was removed, and the samples were dried (5 min, 37 °C). The samples were resuspended in 20 μL of water, the concentration was measured, and the samples were −80 °C.
Primers designed to probe the positions 2506 of the 23S rRNA (5-[sequence]-3′) were labeled with radioactive phosphate (γ^32 P-ATP). […] To prepare primers for one reaction, 1 μL of primer (0.3 μM), 0.4 μL of 5× PNK-buffer, 0.25 μL of water, 0.2 μL of γ^32 P-ATP, and 0.15 μL of T4 PNK were mixed and incubated at 37 °C.

[2] = test system: P. aeruginosa PA14 4.13 (phoQ); conditions: for MIC P. aeruginosa PA14 4.13 (phoQ), 12.5% MHB / MIC P. aeruginosa PA14 4.13 (phoQ), full MHB: polymyxin B resistant strain, 16–20 h at 37 °C; for MIC P. aeruginosa PA14 4.13 (phoQ), 12.5% MHB: 12.5% MHB pH 7.4; for MIC P. aeruginosa PA14 4.13 (phoQ), full MHB: full MHB pH 7.4; for MIC P. aeruginosa PA14 4.13: supplement CSV

VDKPPYLPRPRPPRRIYNR [sr14Nterm-Onc] (VDKPPYLPRPRPPRRIYNR-NH2; also: residues 1-14 stereorandomized (1:1 L/D mixture))
Haemolysis on hRBC, MHC (human red blood cells): >1000 µg/mL | MHC human red blood cells (human red blood cells): >1000 µg/mL | MIC S. aureus, 12.5% MHB (S. aureus COL (MRSA)): >64 / >64 μg/mL | MIC S. aureus, Full MHB (S. aureus COL (MRSA)): >64 / >64 μg/mL | MIC S. aureus COL (MRSA) (S. aureus COL (MRSA); 12.5% MH pH 7.4): >64 µg/mL | MIC S. aureus COL (MRSA) (S. aureus COL (MRSA); full MH pH 7.4): >64 µg/mL | MIC P. aeruginosa, 12.5% MHB (P. aeruginosa PAO1): > 16 µg/mL | MIC P. aeruginosa, Full MHB (P. aeruginosa PAO1): > 64 µg/mL | MIC P. aeruginosa PAO1 (P. aeruginosa PAO1; 12.5% MH pH 7.4): >16 µg/mL | MIC P. aeruginosa PAO1 (P. aeruginosa PAO1; full MH pH 7.4): >64 µg/mL | MIC K. pneumoniae, 12.5% MHB (K. pneumoniae NCTC 418): > 16 µg/mL | MIC K. pneumoniae, Full MHB (K. pneumoniae NCTC 418): > 64 µg/mL | MIC K. pneumoniae NCTC418 (K. pneumoniae NCTC 418; 12.5% MH pH 7.4): >16 µg/mL | MIC K. pneumoniae NCTC418 (K. pneumoniae NCTC 418; full MH pH 7.4): >64 µg/mL | MIC A. baumannii, 12.5% MHB (A. baumannii ATCC19606): 16 µg/mL | MIC A. baumannii, Full MHB (A. baumannii ATCC19606): 64 µg/mL | MIC A. baumannii ATCC19606 (A. baumannii ATCC19606; 12.5% MH pH 7.4): 16 µg/mL | MIC A. baumannii ATCC19606 (A. baumannii ATCC19606; full MH pH 7.4): 64 µg/mL | MIC E. coli, 12.5% MHB (E. coli W3110): 4 µg/mL | MIC E. coli, Full MHB (E. coli W3110): 64 µg/mL | MIC E. coli W3110 (E. coli W3110; 12.5% MH pH 7.4): 4 µg/mL | MIC E. coli W3110 (E. coli W3110; full MH pH 7.4): 64 µg/mL | Protection of U2506 of 23S rRNA from CMCT modification (band at C2507) [1]: did not protect U2506 from CMCT modification | MIC P. aeruginosa PA14 4.13 (phoQ), 12.5% MHB [2]: 32 µg/mL | MIC P. aeruginosa PA14 4.13 (phoQ), full MHB [2]: > 64 µg/mL | MIC P. aeruginosa PA14 4.13 ([2]; 12.5% MH pH 7.4): 32 µg/mL | MIC P. aeruginosa PA14 4.13 ([2]; full MH pH 7.4): >64 µg/mL

VDKPPYLPRPRPPRRIYNR [sr-Onc] (VDKPPYLPRPRPPRRIYNR-NH2; also: all 19 residues stereorandomized (1:1 L/D mixture))
Haemolysis on hRBC, MHC (human red blood cells): >1000 µg/mL | MHC human red blood cells (human red blood cells): >1000 µg/mL | MIC S. aureus, 12.5% MHB (S. aureus COL (MRSA)): >64 / >64 μg/mL | MIC S. aureus, Full MHB (S. aureus COL (MRSA)): >64 / >64 μg/mL | MIC S. aureus COL (MRSA) (S. aureus COL (MRSA); 12.5% MH pH 7.4): >64 µg/mL | MIC S. aureus COL (MRSA) (S. aureus COL (MRSA); full MH pH 7.4): >64 µg/mL | MIC P. aeruginosa, 12.5% MHB (P. aeruginosa PAO1): 8 µg/mL | MIC P. aeruginosa, Full MHB (P. aeruginosa PAO1): > 64 µg/mL | MIC P. aeruginosa PAO1 (P. aeruginosa PAO1; 12.5% MH pH 7.4): 8 µg/mL | MIC P. aeruginosa PAO1 (P. aeruginosa PAO1; full MH pH 7.4): >64 µg/mL | MIC K. pneumoniae, 12.5% MHB (K. pneumoniae NCTC 418): > 16 µg/mL | MIC K. pneumoniae, Full MHB (K. pneumoniae NCTC 418): > 64 µg/mL | MIC K. pneumoniae NCTC418 (K. pneumoniae NCTC 418; 12.5% MH pH 7.4): >16 µg/mL | MIC K. pneumoniae NCTC418 (K. pneumoniae NCTC 418; full MH pH 7.4): >64 µg/mL | MIC A. baumannii, 12.5% MHB (A. baumannii ATCC19606): 8 µg/mL | MIC A. baumannii, Full MHB (A. baumannii ATCC19606): 32 µg/mL | MIC A. baumannii ATCC19606 (A. baumannii ATCC19606; 12.5% MH pH 7.4): 8 µg/mL | MIC A. baumannii ATCC19606 (A. baumannii ATCC19606; full MH pH 7.4): 32 µg/mL | MIC E. coli, 12.5% MHB (E. coli W3110): 8 µg/mL | MIC E. coli, Full MHB (E. coli W3110): 32 µg/mL | MIC E. coli W3110 (E. coli W3110; 12.5% MH pH 7.4): 8 µg/mL | MIC E. coli W3110 (E. coli W3110; full MH pH 7.4): 32 µg/mL | Protection of U2506 of 23S rRNA from CMCT modification (band at C2507) [1]: did not protect U2506 from CMCT modification | MIC P. aeruginosa PA14 4.13 (phoQ), 12.5% MHB [2]: 16 µg/mL | MIC P. aeruginosa PA14 4.13 (phoQ), full MHB [2]: > 64 µg/mL | MIC P. aeruginosa PA14 4.13 ([2]; 12.5% MH pH 7.4): 16 µg/mL | MIC P. aeruginosa PA14 4.13 ([2]; full MH pH 7.4): >64 µg/mL
